The values that follow are results of earlier work, collected in publication PMC12593371, “Whole-Body Disposition and Metabolism of [^14C]-2,4,4′-Trichlorobiphenyl (PCB28) Following Lung Administration in Rats” (Environmental Science & Technology, 2025).

On the set-up of this data set: method as in our prior study (number not given). As to conditions: acute inhalation exposure to a PCB mixture, estimated dose 40 μg/rat; ref our prior study (number not given); cited from earlier work.

In the case of `Clc1cccc(-c2cccc(Cl)c2)c1` [PCB11], the serum elimination half-life is given as 11.5 h.
